Source: patent US20070004759A1, “Fungicidal mixtures for controlling rice pathogens” (priority 2004, published 2007)

Test system: Cochliobolus miyabeanus
Assay: Activity against brown spot of rice caused by Cochliobolus miyabeanus, protective application
Format: in vivo
Conditions: individual active compound, rice seedlings cultivar Tai-Nong 67, protective spray, evaluated six days after inoculation
Procedure: The active compounds, separately or jointly, were prepared as a stock solution with 0.25% by weight of active compound in acetone or DMSO. 1% by weight of the emulsifier Uniperol® EL (wetting agent having emulsifying and dispersing action based on ethoxylated alkylphenols) was added to this solution, and the solution was diluted with water to the desired concentration.
Leaves of potted rice seedlings of the cultivar “Tai-Nong 67” were sprayed to runoff point with an aqueous suspension of the concentration of active compound stated below. The next day, the plants were inoculated with an aqueous spore suspension of Cochliobolus miyabeanus. The test plants were then placed in climatized chambers at 22-24° C. and 95-99% relative atmospheric humidity for six days. The extent of the development of the infection on the leaves was then determined visually.
Evaluation is carried out by determining the percentage of infected plants. These percentages were converted into efficacies.
The efficacy (E) is calculated as follows using Abbot's formula: E=(1−α/β)·100
α corresponds to the fungicidal infection of the treated plants in % and
β corresponds to the fungicidal infection of the untreated (control) plants in %
An efficacy of 0 means that the infection level of the treated plants corresponds to that of the untreated control plants; an efficacy of 100 means that the treated plants are not infected.
The expected efficacies of mixtures of active compounds are determined using Colby's formula (Colby, R. S., Weeds, 15, 20-22, 1967) and compared with the observed efficacies.
Colby's formula: E=x+y−x·y/100 • E expected efficacy, expressed in % of the untreated control, when using the mixture of the active compounds A and B at the concentrations a and b • x efficacy, expressed in % of the untreated control, when using the active compound A at the concentration a • y efficacy, expressed in % of the untreated control, when using the active compound B at the concentration b

CC1CCN(c2c(-c3c(F)cccc3Cl)c(Cl)nc3ncnn23)CC1 [A]
Efficacy in % of the untreated control (4 ppm in the spray liquor): 29% | Efficacy in % of the untreated control (16 ppm in the spray liquor): 53%

C[C@H](Nc1c(-c2c(F)cc(F)cc2Cl)c(Cl)nc2ncnn12)C(F)(F)F [B]
Efficacy in % of the untreated control (4 ppm in the spray liquor): 5% | Efficacy in % of the untreated control (16 ppm in the spray liquor): 41%

CC1CCN(c2c(-c3c(F)cc(F)cc3F)c(Cl)nc3ncnn23)CC1 [compound I, 5-chloro-7-(4-methylpiperidin-1-yl)-6-(2,4,6-trifluorophenyl)-[1,2,4]triazolo[1,5-a]pyrimidine]
Efficacy in % of the untreated control (4 ppm in the spray liquor): 5% | Efficacy in % of the untreated control (16 ppm in the spray liquor): 17%

CC1(C(=O)Nc2ccc(O)c(Cl)c2Cl)CCCCC1 [compound II, N-(2,3-dichloro-4-hydroxyphenyl)-1-methylcyclohexanecarboxamide]
Efficacy in % of the untreated control (4 ppm in the spray liquor): 0% | Efficacy in % of the untreated control (16 ppm in the spray liquor): 0%
